Here are results for two molecules from ChEMBL document CHEMBL3580593, “Parthenolide prodrug LC-1 slows growth of intracranial glioma” (Bioorg Med Chem Lett, 2015).

A short description of data set [1]: Cytotoxicity against human GBM6 cells assessed as cell viability after 48 hrs by Alamar Blue assay. The settings on record: GBM6, 48 h. The class given is functional, cell-based. (In general: Alamar Blue is a resazurin reagent that responds to reducing activity.)
The test system of another data set is U-87 MG. As to the kind of experiment: Cytotoxicity against human U87MG cells assessed as cell viability after 48 hrs by Alamar Blue assay. The class given is functional, cell-based, U-87MG ATCC.
The nature of data set [2]: Cytotoxicity against […] GL261-GFP-Luc cells assessed as cell viability after 48 hrs by Alamar Blue assay. The settings on record: Mus musculus, GL261, 48 h. Type of data set: functional, cell-based.
Data set [3] deals with Plasma. As to the kind of experiment: Drug uptake in CD1 mouse plasma assessed as elimination product parthenolide at 100 mg/kg, po after 1 hr by LC-MS/MS analysis. The class given is ADME, organism-based. The settings on record: in vivo.
Data set [4] relates to Brain. Description: Drug uptake in CD1 mouse perfused brain assessed as elimination product parthenolide at 100 mg/kg, po after 4 hrs by LC-MS/MS analysis. The settings on record: in vivo. Type of data set: ADME, organism-based.
The subject of data set [5] is Mus musculus. Description: Toxicity in C57BL/6 mouse assessed as platelet count at 100 mg/kg, po formulated in HP-beta CD. Type of data set: organism-based. The settings on record: in vivo.
The nature of data set [6]: Ratio of drug level in brain to plasma in CD1 mouse at 100 mg/kg, po after 4 hrs by LC-MS/MS analysis. Type of data set: ADME, organism-based. The settings on record: read-out: BPR.
In data set [7] the test system is Mus musculus. Description: Toxicity in C57BL/6 mouse assessed as RBC count at 100 mg/kg, po formulated in HP-beta CD. The class given is organism-based. The settings on record: in vivo.
A short description of data set [8]: Drug uptake in CD1 mouse plasma at 100 mg/kg, po after 4 hrs by LC-MS/MS analysis. Type of data set: ADME, organism-based.
For data set [9], the system named is GL261. As to the kind of experiment: Antitumor activity in mouse GL261-GFP-Luc cells allografted in C57BL/6J mouse assessed as increase in mouse survival time at 100 mg/kg, po relative to control. Type of data set: functional, organism-based.
Data set [10] in a line: Drug uptake in CD1 mouse plasma at 100 mg/kg, po after 1 hr by LC-MS/MS analysis. Type of data set: ADME, organism-based.
A short description of data set [11]: Ratio of drug level in brain to plasma in Wistar rat at 100 mg/kg, po after 30 mins by UPLC-MS/MS analysis. Type of data set: ADME, organism-based. The settings on record: read-out: BPR.
A short description of data set [12]: Ratio of drug level in brain to plasma in CD1 mouse at 100 mg/kg, po after 1 hr by LC-MS/MS analysis. Type of data set: ADME, organism-based. The settings on record: read-out: BPR.
Data set [13] can be described thus: Half life in mouse serum. Type of data set: ADME, cell-free.
Data set [14] is described as follows: Ratio of drug level in brain to plasma in Wistar rat at 100 mg/kg, po after 3 hrs by UPLC-MS/MS analysis. The class given is ADME, organism-based. The settings on record: read-out: BPR.
Data set [15] in a line: Drug uptake in CD1 mouse perfused brain at 100 mg/kg, po after 1 hr by LC-MS/MS analysis. The class given is ADME, organism-based. The settings on record: read-out: Drug uptake.
Another data set concerns Nucleic Acid. Description: Ratio of drug level in brain to plasma in CD1 mouse assessed as elimination product parthenolide at 100 mg/kg, po after 4 hrs by LC-MS/MS analysis. The class given is ADME, organism-based.
Data set [16] deals with GL261. Description: Antitumor activity in mouse GL261-GFP-Luc cells allografted in C57BL/6J mouse assessed as delay in tumor growth at 100 mg/kg, po relative to control. Type of data set: functional, organism-based.
Data set [17] can be described thus: Drug uptake in CD1 mouse perfused brain at 100 mg/kg, po after 4 hrs by LC-MS/MS analysis. The settings on record: read-out: Drug uptake. Type of data set: ADME, organism-based.
Data set [18] deals with Mus musculus. As to the kind of experiment: Toxicity in C57BL/6 mouse assessed as WBC count at 100 mg/kg, po formulated in HP-beta CD. The class given is organism-based. The settings on record: in vivo.
Data set [19] deals with Mus musculus. Description: Toxicity in C57BL/6 mouse assessed as hemoglobin level at 100 mg/kg, po formulated in HP-beta CD. Type of data set: organism-based. The settings on record: in vivo.
The test system of data set [20] is Brain. Description: Drug uptake in CD1 mouse perfused brain assessed as elimination product parthenolide at 100 mg/kg, po after 1 hr by LC-MS/MS analysis. The class given is ADME, organism-based. The settings on record: in vivo.
Data set [21] concerns Plasma. As to the kind of experiment: Drug uptake in CD1 mouse plasma assessed as elimination product parthenolide at 100 mg/kg, po after 4 hrs by LC-MS/MS analysis. The class given is ADME, organism-based. The settings on record: in vivo.

The source made the active and inactive calls.

On to `C=C1C(=O)O[C@@H]2C3O[C@]3(C)CC/C=C(\C)CC[C@@H]12` (stereo partly specified), for which the IC50 in [1] stood at 3.4 µM; in the data set on U-87 MG, 8.8 µM; in data set [2] it was 7.6 µM.

Turning to `C/C1=C\CC[C@@]2(C)O[C@H]2[C@H]2OC(=O)[C@@H](CN(C)C)[C@@H]2CC1`, the Cp with Plasma [3] worked out at 2142 ng/mL; in the data set on Plasma [21], 211 ng/mL. The Drug uptake with Brain [4] is 113 ng/g; in the data set with Brain [20], 2402 ng/g. In addition, the Activity result in the data set with Mus musculus [5], in the data set with Mus musculus [7], with Mus musculus [18] and with Mus musculus [19] was “Non-toxic” each time. In addition, the Kp at 4 h in data set [6] was 3. The results for the IC50 (in [1]; with U-87 MG; in data set [2]) were 3.5 µM, 8.8 µM and 6.9 µM, respectively. In addition, the concentration at 4 h amounted to 115 ng/mL in data set [8] and 342 ng/g in data set [17]. Moreover, the outcome with GL261 [9] and in the data set on GL261 [16] was Active. Besides, the figures for the concentration at 1 h in [10] and in data set [15] were 2960 ng/mL and 6250 ng/g, respectively. Further, the Kp at 0.5 h in data set [11] is 1.84. Besides, in [12], the Kp at 1 h is 2.1. This molecule also had a half-life in [13] of 37.8 min. The Kp at 3 h in [14] was 1.91. Moreover, the BPR in the data set on Nucleic Acid worked out at 0.5.

In general, IC50 refers to the point on the concentration scale where inhibition reaches its midpoint. As a reminder, the half-life is the time needed for the level to fall by half in the phase considered.
